# Results taken from patent EP0497258B1, “Use of adenosine antagonists in the prevention and treatment of pancreatitis and ulcer” (FUJISAWA PHARMACEUTICAL CO., LTD., priority 1991, dated 1992).
# What was measured:
# Type in all cases: in vivo, Sprague-Dawley rats
# [1] = test system: CHA(N^6-cyclohexyladenosine)-induced pancreatitis; assay: Effect on CHA-induced pancreatitis (serum amylase); conditions: 10 mg/kg orally 30 minutes before CHA; for inhibition %: inhibition of CHA-induced serum amylase increase; for serum amylase (10^3 IU/ℓ): male rats, CHA 3.2 mg/kg orally, blood after 24 hours, Normal 4.1 ± 0.2, Control 28.3 ± 10.0
# Description: Male Sprague-Dawley rats, weighing 245-260 g, were deprived of food but allowed free access to water for 24 hours CHA was given orally at a dose of 3.2 mg/kg. After 24 hours, animals were killed and blood samples were collected. Subsequently, the blood serum was prepared and amylase concentration was determined. The test compounds (1) to (5) (10 mg/kg) or vehicle (to control group) was given orally 30 minutes before CHA administration. In Normal group, vehicle was given instead of CHA.
# [2] = test system: CHA(N^6-cyclohexyladenosine)-induced gastric ulcer; assay: Effect on CHA-induced gastric ulcer; conditions: 10 mg/kg orally 30 minutes before CHA; for inhibition %: inhibition of ulcer index vs Control; for ulcer index (mm^2): male rats, CHA 1 mg/kg subcutaneously, stomachs examined after 7 hours, Control 65.0 ± 18.4
# Description: Male Sprague-Dawley rats, weighing 225-259 g, were deprived of food but allowed free access to water for 24 hours. CHA was given subcutaneously at a dose of 1 mg/kg. After 7 hours, animals were killed and stomachs were removed. Subsequently, the stomachs were inflated by injecting 12 ml of 2% formalin to fix the inner layer of gastric walls. Ten minutes later, they were incised along the greater curvature and examined for lesions. Test Compounds (1) to (5) (10 mg/kg) or vehicle (to control group) was given orally 30 minutes before CHA administration.
# [3] = test system: ischemia induced gastric ulcer; assay: Effect on ischemia induced gastric ulcer (left gastric artery ligation)
# Description: Male Sprague-Dawley rats (9 or 10 rats for one group) weighing 230 to 270 g were fasted for 24 hours but allowed free access to water ad libitum.
# Under ether anesthesia, the abdomen was incised and the left gastric artery was ligated. After closing the abdomen, animals were maintained an regular feed with water ad libitum. The test compound (1) (10 mg/kg/5 ml) for the test group or vehicle (0.1 % methyl cellulose, 5 ml/kg) for the control group was given orally twice a day (9:00 a.m. and 5:00 p.m.) from the first day after the operation for 3 consecutive days. On the fourth day after the operation, the test compound (for the test group) or vehicle (for the control group) was given at 9:00 a.m. and animals were killed at.5:00 p.m.. The stomach was examined for ulcers.
# Ulcer index was expressed as lesion area (mean ± standard error).
# [4] = test system: serum amylase increment induced by caerulein administration with water immersion restraint stress; assay: Effect on serum amylase increment induced by caerulein administration with water immersion restraint stress; conditions: male rats, caerulein 50 µg/kg s.c. + water immersion restraint at 23°C for 7 hours; 1 mg/kg orally 30 minutes before caerulein; mean ± standard error; control group 22.5 ± 3.3
# Description: Male Sprague-Dawley rats (6 rats for one group) weighing 210 to 240 g were fasted for 24 hours but allowed free access to water ad libitum. Immediately after caerulein administration (50 µg/kg/2 ml s.c.), rats were placed in restraint cages and immersed in water at 23°C for 7 hours. The animals were killed and blood sample was collected from femoral blood vessels. Serum amylase was measured using Neo-Amylase Test "DAIICHI" (trademark, prepared by DAIICHI KAGAKU YAKUHIN). The test compound (1) (1 mg/kg/5 ml) for the test group or vehicle (0.1 % methyl cellulose, 5 ml/kg) for the control group was given orally 30 minutes before caerulein administration.
# Serum amylase concentration was expressed as mean ± standard error.
SMILES,inhibition % [1] [%],serum amylase (10^3 IU/ℓ) [1],inhibition % [2] [%],ulcer index (mm^2) [2] [mm^2],"inhibition % ([3]; inhibition of ulcer index vs control group, 10 mg/kg orally twice a day) [%]","ulcer index (mm^2) ([3]; male rats, left gastric artery ligated, 10 mg/kg orally twice a day from first day after operation, killed on fourth day, lesion area, mean ± standard error, control group 26.2 ± 6.0)",serum amylase (10^3 IU/L) [4]
"O=C(C=Cc1c(-c2ccccc2)nn2ccccc12)N1CCCC[C@@H]1CCO [Test Compound (1), (2R)-1-[3-(2-Phenylpyrazolo[1,5-a]pyridin-3-yl)acryloyl]-2-(2-hydroxyethyl)piperidine]",69.4,11.5 ± 5.8 10^3 IU/ℓ,99.4,0.4 ± 0.4,45.8,14.2 ± 4.0,13.8 ± 1.0 10^3 IU/L
"O=C(O)C[C@H]1CCCCN1C(=O)C=Cc1c(-c2ccccc2)nn2ccccc12 [Test Compound (3), (2R)-1-[3-(2-Phenylpyrazolo[1,5-a]pyridin-3-yl)acryloyl]-2-(carboxymethyl)piperidine]",92.6,5.9 ± 1.0 10^3 IU/ℓ,99.8,0.1 ± 0.1,–,–,–
"O=C(O)CCCn1nc(-c2c(-c3ccccc3)nn3ccccc23)ccc1=O [Test Compound (2), 3-[2-(3-Carboxypropyl)-3-oxo-2,3-dihydropyridazin-6 yl]-2-phenylpyrazolo[1,5-a]pyridine]",99.6,4.2 ± 0.3 10^3 IU/ℓ,97.1,1.9 ± 1.9,–,–,–
